Patent publication US20060234986A1, “Use of TAFI inhibitors for enhanced myocardial reperfusion and facilitated PCI” (Schering Aktiengesellschaft, priority 2005, published 2006)

What was measured:
[1] = system: rat femoral artery occlusive thrombus; assay: Rat femoral artery thrombosis model (rose Bengal + light irradiation), incidence of reperfusion; assay type: in vivo
Excerpt: A stable, occlusive thrombus was formed by giving rose Bengal intravenously followed by light irradiation. Free radicals generated at the site of irradiation result in endothelial damage that causes an occlusive thrombus. Thrombotic occlusion and effective fibrinolysis (reperfusion) were monitored by measuring blood flow with a Doppler flow probe. Since no spontaneous reperfusion is observed in this model, a threshold dose of tPA was used to mimic the endogenous fibrinolytic activity observed in patients with STEMI undergoing PCI (16-25% spontaneous reperfusion rate). […] Based on the results of phanmacokinetic studies and in vitro clot lysis assays, two doses (3 and 10 mg/kg) of a TAFI inhibitor of the invention, (2S)-2-(3-(amino)methylphenyl)-3-(((1R)-1-(3-phenylpropylsulfonyl)amino-2-methylpropyl)(hydroxy)phosphinoyl)propanoic acid trifluoroacetate, were used.
Male Wistar rats (241-270 g) were anesthetized with sodium pentobarbital. A section of the right femoral artery was isolated carefully, and a pulse Doppler flow probe was placed for monitoring blood flow. The left carotid artery, both jugular veins, and left femoral vein were cannulated with polyethylene tubes for monitoring blood pressure and heart rate, for injection of tPA, rose Bengal and TAFI inhibitor, respectively. Blood flow, blood pressure and heart rate were continuously recorded on a thermal recorder during the experiment. An occlusive thrombus was induced in the right femoral artery by bolus injection of rose Bengal followed by light exposure. Occlusive thrombus was observed approximately 6 min after the injection of rose Bengal and start of irradiation.
Rats were assigned to four groups for the tPA dose response as follows: • (1) Vehicle (saline; n=8) • (2) tPA (72 μg/kg/min=2.5 million I.U./kg/hr; n=8) • (3) tPA (115 μg/kg/min=4 million I.U./kg/hr; n=10) • (4) tPA (230 μg/kg/min=8 million I.U./kg/hr; n=8)
tPA or vehicle was infused via the right jugular vein beginning 10 min after the formation of occlusive thrombus and the infusion was continued for 60 min.
Rats were assigned to three groups for the TAFI inhibitor efficacy study as follows: • (1) tPA threshold (72 μg/kg/min, n=16) • (2) low TAFI inhibitor (3 mg/kg+0.03 mg/kg/min) and tPA threshold (72 μg/kg/min) (n=8) • (3) high TAFI inhibitor (10 mg/kg+0.10 mg/kg/min) and tPA threshold (72 μg/kg/min) (n=8)
Administration of TAFI inhibitor or vehicle via the left femoral vein was started simultaneously with tPA via the right jugular vein beginning 10 min after the formation of occlusive thrombus, both given as a bolus over 1 min and infusion for 59 min. […] The incidence of reperfusion was used as the index of drug efficacy.

α2-antiplasmin = assay: Ex vivo α2-antiplasmin activity (colorimetric assay) in dog plasma
Description: Plasma drug concentration was measured using LC/MS/MS techniques. Ex vivo α2-antiplasmin, an indicator of systemic plasmin activation, was measured by colorimetric assay. Exogenously activated TAFI (10 nM) was added into the blank plasma and TAFI activity measured by colorimetric assays was defined as 100%. Plasma from TAFI inhibitor-administered dogs were treated in the same way, and results were expressed as the percent inhibition of the spiked TAFI activity.

[2] = system: bleeding time after sectioning of the cuticle; assay: Dog cuticle bleeding time; assay type: in vivo
Excerpt: (§1) A dog femoral artery thrombosis model was used to test that TAFI inhibition by i.v. administration of a potent and selective TAFI inhibitor would potentiate fibrinolysis. A stable, occlusive thrombus was formed using FeCl2 to chemically injure the arterial wall. Thrombotic occlusion and reperfusion (effective fibrinolysis) were monitored by measuring blood flow with a Doppler flow probe. Since no spontaneous reperfusion is observed in this model, a sub-maximal dose of tPA was used to enhance baseline activity. […] Bleeding propensity was measured by determining the time required for bleeding to stop following a series of standardized wounds (sectioning of the cuticle).
(§2) Male Beagle dogs (8-12 kg) were anesthetized with isoflurane (2-3%). […] Femoral artery blood flow, systemic blood pressure, heart rate and breathing patterns were monitored and recorded on a data acquisition system during the experiment. […] The time for the cut to cease bleeding was recorded as the primary bleeding time.
(§3) After stabilization of hemodynamic parameters, a blood sample was taken for drug levels. […] Bleeding time was determined and a blood sample was collected 20 min after the start of the tPA infusion. […]

[3] = system: rabbit jugular vein thrombus; assay: Rabbit jugular vein thrombosis model, thrombus weight; assay type: in vivo; conditions: for Thrombus weight (wet): 90 min
Description: Thrombosis was initiated ex vivo and introduced into the jugular vein. Treatment compound(s) were administered to the animals after thrombus formation and introduction. Fibrinolysis was assessed by measuring clot weight at the end of the study. […] The threshold dose of tPA was combined with either a TAFI inhibitor of the invention, (2S)-2-(3-(amino)methylphenyl)-3-(((1R)-1-(3-phenylpropylsulfonyl)amino-2-methylpropyl)(hydroxy)phosphinoyl)propanoic acid trifluoroacetate, or the peptidic TAFI inhibitor CPI, which was used as a positive control to confirm the effect of TAFI inhibition in this model.
Male New Zealand white rabbits (2.35-3.14 kg) were anesthetized using isoflurane. A segment of the jugular vein was isolated with ligatures and injected with a mixture of autologous citrated blood and thromboplastin to induce thrombus formation. The thrombus formed in the isolated venous segment was allowed to mature for 30 minutes prior to releasing the ligatures and initiating thrombolytic treatment.
Rabbits were divided into the following treatment groups (10-12 animals per group): • (1) vehicle; phosphate buffered saline (PBS) • (2) threshold fibrinoloytic dose tPA (10 μg/kg+67 μg/kg/hr) • (3) CPI (500 μg/kg+300 μg/kg/hr)+tPA low (10 μg/kg+67μg/kg/hr) • (4) low TAFI inhibitor (0.3 mg/kg+0.14 mg/kg/hr)+tPA low (10 μg/kg+67 μg/kg/hr) • (5) high TAFI inhibitor (3 mg/kg+1.4 mg/kg/hr)+tPA low ([…]+67 μg/kg/hr) • (6) maximally effective dose tPA (30 μg/kg+200 μg/kg/hr)
Blood samples were collected from the left jugular vein for measurement of TAFI inhibitor plasma drug levels prior to releasing the ligatures (time=0), and at 1, 10, 30, 60, and 90 minutes after starting thrombolytic treatment. CPI, TAFI inhibitor, tPA or vehicle were administered as bolus injections, followed by a constant infusion for 90 minutes via the right marginal ear vein. At the end of 90 minutes, the rabbits were euthanized and the thrombus was removed for determination of wet and dry weights. The relative effects of all treatment groups were the same, regardless of whether wet or dry weights were utilized for analysis, so only wet weights are used in the subsequent discussion. The assessment of bleeding risk was evaluated by measuring the weight of blood loss from toe nail clips performed prior to thrombolytic treatment, and at the end of the study. Re-bleeding from the previous site following initial hemostasis was also recorded.
Data were analyzed using ANOVA followed by the LSD test for a comparison of differences in thrombus weight in the various treatment groups. In the vehicle-treated animals (group 1) thrombus weights averaged 98±9 mg. […] When either CPI (group 3) or TAFI inhibitor (group 4 or 5) was given together with the low dose of tPA, the threshold effect of tPA was enhanced, and a significant reduction in thrombus weights was observed when compared to the vehicle-treated group. This enhancement of fibrinolytic activity of tPA for the CPI group (68±10 mg) and the low dose TAFI inhibitor group (63±10 mg) was similar to results obtained with the high dose TAFI inhibitor group (56±13 mg). In animals treated with the higher dose of tPA (group 6), a significant reduction in thrombus weight (41±7 mg) was observed compared to both the vehicle and low dose tPA groups.

[4] = system: dog femoral artery occlusive thrombus; assay: Dog femoral artery thrombosis model (FeCl2 injury), reperfusion and time to occlusion; assay type: in vivo; conditions: TAFI inhibitor pre-treatment (10 min before FeCl2), n=6, p=ns vs control group
Excerpt: as §1, §2, §3

[5] = system: LPS-induced impairment of fibrinolysis (lung fibrin deposition); assay: Rat lung fibrin deposition model (batroxobin, 125I-fibrinogen, LPS); assay type: in vivo
Description: This model was used to test the hypothesis that inhibition of endogenous TAFI can enhance fibrinolysis. Batroxobin, a thrombin-like enzyme, was used to hydrolyze fibrinogen to fibrin, which deposits in tissues, especially in the lungs. Following tissue deposition, fibrin is lysed into fibrin degradation products, which return to the blood. In this study, ^125I-labeled fibrinogen was given and tissue accumulation of fibrin and the subsequent fibrinolysis were assessed by the mobilization of ^125I from blood to tissue (generation of ^125I-fibrin from ^125I-fibrinogen) and back to blood (generation of ^125I-fibrin degradation products from ^125I-fibrin) after batroxobin injection. LPS has been known to stinulate the release of numerous endogenous factors that can inhibit fibrinolytic activity, including TAFI, thus preventing spontaneous fibrinolysis in the lungs.
Male Sprague-Dawley rates (300-350g) were randomly divided into three groups: • (1) untreated (controls) • (2) treated with LPS • (3) treated with LPS+TAFI inhibitor. Animals assigned to receive LPS (0.5 mg/kg, iv) were injected 3 hours before batroxobin injection. Twenty minutes before batroxobin injection, all animals were anesthetized with pentobarbital (65 mg/kg, ip), and saline-filled catheters were placed into the right carotid artery and left jugular vein for blood collection and drug injection, respectively. ^125I-fibrinogen (1 mCi) was administered to all animals 10 min. prior to batroxobin injection and animals assigned to receive the TAFI inhibitor (10 mg/kg) were injected 5 min. before the batroxobin. The rats were sacrificed at either 5 or 30 min after batroxobin injection.

tPA: tissue-type plasminogen activator, a plasminogen activator used as thrombolytic agent
Incidence of reperfusion ([1]; TAFI inhibitor efficacy study, tPA threshold dose 72 μg/kg/min alone, reperfused/total rats): 2/16
Incidence of reperfusion ([1]; tPA dose response study, tPA 72 μg/kg/min infused 60 min, starting 10 min after occlusive thrombus, reperfused/total rats): 1/8
Incidence of reperfusion ([1]; tPA dose response study, tPA 115 μg/kg/min infused 60 min, reperfused/total rats): 5/10
Incidence of reperfusion ([1]; tPA dose response study, tPA 230 μg/kg/min infused 60 min, reperfused/total rats): 6/8
Activity of α2-antiplasmin (indicator of systemic plasmin activation) (α2-antiplasmin; tPA infusion, dose dependence): dose-dependently reduced
Bleeding time ([2]; dog, in vivo): prolonged dose-dependently
Thrombus weight (wet) ([3]; higher (maximally effective) dose tPA 30 μg/kg + 200 μg/kg/hr alone): 41 ± 7 mg
Thrombus weight (wet) ([3]; low (threshold) dose tPA 10 μg/kg + 67 μg/kg/hr alone, not significant vs vehicle): 80 ± 11 mg
% Reduction Thrombus Weight ([3]; threshold dose tPA (10 μg/kg + 1 μg/kg/min) alone): 18%

CC(C)[C@H](NS(=O)(=O)CCCc1ccccc1)P(=O)(O)C[C@H](C(=O)O)c1cccc(CN)c1.O=C(O)C(F)(F)F [TAFI inhibitor, (2S)-2-(3-(amino)methylphenyl)-3-(((1R)-1-(3-phenylpropylsulfonyl)amino-2-methylpropyl)(hydroxy)phosphinoyl)propanoic acid trifluoroacetate]
Incidence of reperfusion ([1]; 3 mg/kg TAFI inhibitor + tPA (72 μg/kg/min) post-thrombus formation, p = ns): 25% (2/8) p = ns
Incidence of reperfusion ([1]; 10 mg/kg TAFI inhibitor + tPA (72 μg/kg/min) post-thrombus formation, p < 0.03): 63% (5/8) p < 0.03
Incidence of reperfusion ([1]; high TAFI inhibitor dose 10 mg/kg + 0.10 mg/kg/min i.v. + tPA threshold 72 μg/kg/min, post-thrombus, reperfused/total rats): 5/8
Incidence of reperfusion ([1]; low TAFI inhibitor dose 3 mg/kg + 0.03 mg/kg/min i.v. + tPA threshold 72 μg/kg/min, post-thrombus, reperfused/total rats): 2/8
Inhibition of α2-antiplasmin activity induced by tPA infusion (α2-antiplasmin; TAFI inhibitor administered pre- or post-thrombus formation + tPA): did not change
Bleeding time ([2]; TAFI inhibitor 10 mg/kg pre-thrombus + tPA 10 μg/kg/min, versus tPA alone): without further prolongation of bleeding time
Time to occlusion induced by FeCl2 [4]: 31.1 ± 3.9 min
% Reduction Thrombus Weight ([3]; 0.3 mg/kg TAFI inhibitor + tPA post-thrombus formation, p = ns): 36% p = ns
% Reduction Thrombus Weight ([3]; 3 mg/kg TAFI inhibitor + tPA post-thrombus formation, p = ns): 43% p = ns
Thrombus weight (wet) ([3]; high TAFI inhibitor 3 mg/kg + 1.4 mg/kg/hr + tPA low (10 pg/kg + 67 μg/kg/hr)): 56 ± 13 mg
Thrombus weight (wet) ([3]; low TAFI inhibitor 0.3 mg/kg + 0.14 mg/kg/hr + tPA low (10 μg/kg + 67 μg/kg/hr)): 63 ± 10 mg
CPM in the lungs versus control rats ([5]; LPS + TAFI inhibitor 10 mg/kg, 30 min after batroxobin): not different
Blood CPM and 125I in the lungs ([5]; LPS + TAFI inhibitor 10 mg/kg, 30 min after batroxobin, versus LPS-treated rats): prevented LPS-induced recovery of blood CPM and resulted in ^125I retention in the lungs
Radioactive readings in blood or lungs ([5]; TAFI inhibitor 10 mg/kg in LPS-treated rats, 5 min after batroxobin, in relation to LPS-treated rats): did not change
